These results are taken from paper PMC12279193 (Advanced Science, 2025).

In one assay the target is T1, HCoV-OC43 spike protein (Human coronavirus OC43, UniProt P36334).
T1 construct: gene S
The class given is binding.

The target in assay [1] is S-RBD protein; SARS-CoV-2 RBD (Severe acute respiratory syndrome coronavirus 2, UniProt P0DTC2). Put plainly: 1H CPMG and STD NMR; DARTS. The class given is binding. To be noted: 200 µM S416, 5 µM RBD, PBS in D2O, 5% DMSO-d6, 25 °C.

T1 sequence (P36334 14-1297): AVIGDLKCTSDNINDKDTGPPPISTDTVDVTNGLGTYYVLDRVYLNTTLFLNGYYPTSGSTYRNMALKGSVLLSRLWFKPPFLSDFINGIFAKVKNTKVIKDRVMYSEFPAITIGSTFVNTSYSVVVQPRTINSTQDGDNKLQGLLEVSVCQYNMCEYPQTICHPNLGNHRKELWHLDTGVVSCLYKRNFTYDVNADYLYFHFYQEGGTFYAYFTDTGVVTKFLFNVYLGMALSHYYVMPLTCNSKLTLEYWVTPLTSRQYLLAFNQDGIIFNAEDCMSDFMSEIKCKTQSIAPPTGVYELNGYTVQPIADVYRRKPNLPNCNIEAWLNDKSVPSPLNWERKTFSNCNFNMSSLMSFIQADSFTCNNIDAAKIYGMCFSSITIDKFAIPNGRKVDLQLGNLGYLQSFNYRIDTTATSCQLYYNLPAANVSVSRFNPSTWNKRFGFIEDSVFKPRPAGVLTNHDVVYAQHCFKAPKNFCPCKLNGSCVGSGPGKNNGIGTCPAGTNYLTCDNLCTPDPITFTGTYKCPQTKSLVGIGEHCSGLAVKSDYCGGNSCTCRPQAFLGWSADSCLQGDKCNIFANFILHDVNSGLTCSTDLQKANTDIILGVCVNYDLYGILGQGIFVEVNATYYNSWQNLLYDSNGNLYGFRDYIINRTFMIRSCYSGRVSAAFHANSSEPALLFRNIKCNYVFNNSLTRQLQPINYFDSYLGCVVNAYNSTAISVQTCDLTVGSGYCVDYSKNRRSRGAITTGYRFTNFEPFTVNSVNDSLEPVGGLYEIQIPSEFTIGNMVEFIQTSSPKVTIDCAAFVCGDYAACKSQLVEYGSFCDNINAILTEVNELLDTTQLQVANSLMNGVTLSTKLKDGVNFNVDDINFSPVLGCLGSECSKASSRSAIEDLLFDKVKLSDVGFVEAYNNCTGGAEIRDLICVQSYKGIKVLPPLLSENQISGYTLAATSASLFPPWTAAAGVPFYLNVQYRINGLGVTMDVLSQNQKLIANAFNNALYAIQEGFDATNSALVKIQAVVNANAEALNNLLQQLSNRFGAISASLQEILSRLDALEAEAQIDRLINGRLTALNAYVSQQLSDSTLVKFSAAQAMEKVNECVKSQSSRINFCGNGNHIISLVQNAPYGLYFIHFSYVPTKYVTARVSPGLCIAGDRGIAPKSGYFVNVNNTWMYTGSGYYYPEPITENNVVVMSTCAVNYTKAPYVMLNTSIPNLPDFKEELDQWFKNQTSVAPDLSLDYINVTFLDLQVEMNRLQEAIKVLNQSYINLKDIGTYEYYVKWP

As usually defined, the Kd is the constant that tells how readily two partners part at equilibrium. A higher Kd goes with weaker binding. Consider `CN(/N=C/c1ccccc1C(=O)O)c1nc(-c2ccccc2Cl)cs1` [S416], for which, at HCoV-OC43 spike protein, binding was characterised by a dissociation constant (Kd) of 33.3 µM. In assay [1], the “1H CPMG and STD NMR; DARTS” value was “confirmed that S416 could indeed bind to RBD directly”.
